Source: ChEMBL document CHEMBL4118172, “Design and synthesis of 2,6-disubstituted-8-amino imidazo[1,2a]pyridines, a promising privileged structure” (Bioorg Med Chem, 2018)

Assays:
[1] = Cytotoxicity against human SH-SY5Y cells after 24 to 72 hrs by MTT assay; assay type: cell-based
Adenosine receptor A2a = Adenosine receptor A2a (Homo sapiens, UniProt P29274); experiment: Displacement of [3H]-ZM-241385 from human adenosine A2A receptor expressed in HEK293 cell membranes after 1 hr by scintillation counting analysis
Adenosine receptor A2a, sequence (P29274 whole entry): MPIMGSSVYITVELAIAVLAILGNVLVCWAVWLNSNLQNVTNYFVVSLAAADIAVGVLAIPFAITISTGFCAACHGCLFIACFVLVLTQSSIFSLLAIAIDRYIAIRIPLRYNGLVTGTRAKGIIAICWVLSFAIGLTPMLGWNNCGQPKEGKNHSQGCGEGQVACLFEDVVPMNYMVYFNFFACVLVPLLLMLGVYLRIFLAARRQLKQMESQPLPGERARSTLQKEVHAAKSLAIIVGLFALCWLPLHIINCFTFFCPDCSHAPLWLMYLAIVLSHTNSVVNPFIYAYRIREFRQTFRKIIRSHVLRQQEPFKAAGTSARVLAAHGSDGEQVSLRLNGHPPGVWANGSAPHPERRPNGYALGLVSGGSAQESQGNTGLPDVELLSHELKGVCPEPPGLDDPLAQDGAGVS

Ki (Adenosine receptor A2a) [µM]	Compound	CC50 [1] [µM]
> 10	Nc1cccn2cc(-c3ccco3)nc12	> 100
> 10	COc1ccc(-c2cn3cc(C(=O)NCCCN4CCCCC4)cc(N)c3n2)cc1OC	49.6
> 10	COCCOc1ccc(N2CCN(CCNC(=O)c3cc(N)c4nc(-c5ccc(OC)c(OC)c5)cn4c3)CC2)cc1	31.8
> 10	COc1ccc(-c2cn3cc(CCc4ccccc4)cc(N)c3n2)cc1OC	50.4
> 10	COc1ccc(-c2cn3cc(C#Cc4ccccc4)cc(N)c3n2)cc1OC	66.7
> 10	Nc1cc(-c2ccccc2)cn2cc(-c3ccco3)nc12	0.5
> 10	c1ccc(-c2cn3cc(-c4ccco4)ccc3n2)cc1	> 100
> 10	COc1ccc(-c2cn3cc(C(=O)NCCCN4CCN(C)CC4)cc(N)c3n2)cc1OC	> 100
> 10	COc1ccc(-c2cn3cc(C(=O)NCCc4ccc(O)cc4)cc(N)c3n2)cc1OC	26.9
> 10	COCCOc1ccc(N2CCN(C(=O)c3cc(N)c4nc(-c5ccc(OC)c(OC)c5)cn4c3)CC2)cc1	> 100
> 10	c1coc(-c2cn3ccccc3n2)c1	> 100
> 10	Nc1cc(-c2ccco2)cn2cc(-c3ccco3)nc12	2.27
0.418	Nc1cc(-c2ccco2)cn2cc(-c3ccccc3)nc12	26
> 10	c1ccc(-c2ccc3nc(-c4ccco4)cn3c2)cc1	0.42
> 10	COc1ccc(-c2cn3cc(C(=O)NCCCN4CCNCC4)cc(N)c3n2)cc1OC	> 100
> 10	COc1ccc(-c2cn3cc(C(=O)NCCCN4CCOCC4)cc(N)c3n2)cc1OC	> 100
0.117	COc1ccc(-c2cn3cc(-c4ccco4)cc(N)c3n2)cc1OC	36.4
0.238	COc1ccc(-c2cn3cc(-c4ccco4)ccc3n2)cc1OC	30
1.63	c1coc(-c2ccc3nc(-c4ccco4)cn3c2)c1	3
